Data reported in patent US12583884B2, “3beta-(benzyloxy)-17alpha-methyl-pregn-5-en-20-one for use in the treatment of cognitive disorders” (AELIS FARMA, priority 2018, dated 2026).
pIC50: −log10 of the molar value.

Experiments:
[1] = biological target: T1, Vasoactive intestinal peptide PAC1-PACAP (Homo sapiens, UniProt P41586); experiment: CEREP binding profile: PAC1
T1 construct: CEREP (contract panel)
Text: (§1) The CEREP High-throughput profile consists of a broad collection of 80 transmembrane and soluble receptors, ion channels and G-Protein coupled receptors.

[2] = 7-day oral safety study in rats; assay type: in vivo, Sprague-Dawley rats
Description: Morbidity/mortality checks were performed twice daily. Clinical observations were performed before the first dosing and then daily. Functional and neurobehavioral tests were performed before the first dosing and on the last day of treatment. Body weight was recorded on Day-1, Day-3, Day-5 and Day-7. Food consumption was measured weekly.
Blood samples for haematology parameters and clinical chemistry analysis were collected on the day of necropsy (Day-8).
Animals were sacrificed on Day-8. Selected organs were weighed, fixed, preserved at necropsy and examined histopathologically.

[3] = tested on: 85 receptors; experiment: CEREP High-throughput binding profile (85 receptors), whole panel
Text: as §1

[4] = biological target: T2, Steroid nuclear receptors AR (Homo sapiens, UniProt P10275); experiment: Binding: AR
T2 construct: CEREP
Text: as §1

[5] = tested on: Ts65Dn mice; experiment: Short-term sequential object recognition, Down syndrome model; assay type: in vivo, mouse; conditions: 0.6 μg/ml in drinking water, 2 months, delays 5 and 35 min
Description: Mice were allowed to explore 3 different objects (A, B, C) presented one after the other and following one of the two possible sequences: A-C-C-B-A and A-B-C-C-A. In an open field, mice were exposed to object A for 5 min and then placed back into their home cage. After a delay of 5 minutes, mice were exposed to object B or C for 5 min and then placed back into their home cage, and so on. Consequently, the retention delay between two presentations of object C was of 5 minutes whereas the retention delay between two presentations of object A was of 35 minutes. The time spent exploring object A or C at the first presentation was compared with the time exploring the same object at the second presentation. This parameter is used to evaluate object recognition performances.
Before the object recognition procedure, mice were tested in the radial maze.

[6] = Spontaneous behaviors in the home cage (video analysis); assay type: in vivo, mouse; conditions: 30 mg/kg per os; 24 hours video analysis
[7] = Depressive-like behaviors in the sucrose preference test; assay type: in vivo, mouse
Description: Sucrose preference was tested in the home cages of the mice. A sucrose solution containing 2% of sucrose (D(+) saccharose) in tap water was poured in plastic graduated bottles (volume in each bottle, 45 ml). Identical bottles were filled with tap water. All the mice were first habituated to the bottles and to the sucrose solution. One bottle containing water and one bottle containing sucrose were placed in the hopper of each home cage. […] The mice had access to the solutions from the beginning of the dark phase, at the daily peak of food and water consumption (from 7 pm to 8.30 am). The sucrose preference test was performed seven days later. Water and sucrose solutions were presented as described for habituation except that mice had access to the solutions from 12 pm to 10 pm. At each time point, the bottles were weighed, 1 g corresponding to 1 ml. The intake volume was calculated by subtracting the initial bottle weight to the final bottle weight.
15 or 30 mg/kg or of vehicle (corn oil; 5 ml/kg) was studied in the sucrose preference test in 2-month-old male C57B1/6J mice (n=7-8 per group). Rimonabant was dissolved in a vehicle containing dimethylsulfoxide (DMSO, 2%), Tween80 (2%) in injectable NaCl 0.9%. Within the same study, the effect of repeated intraperitoneal injections of rimonabant at 10 mg/kg or of vehicle alone (10 ml/kg) was studied in the sucrose preference test in 2-month-old male C57B1/6J mice (n=8 per group).

[8] = biological target: human CB1 receptor (Homo sapiens, UniProt P21554); experiment: THC-induced decrease of cAMP in CHO-hCB1 cells; assay type: cell-based; conditions: 1 nM, 10 nM, 100 nM and 1 μM
Description: CHO-CB1-C2 cells were treated by concomitantly adding THC and the test compound for 45 minutes. Forskolin (2.5 μM) was also simultaneously added in all the conditions tested to sustain cAMP basal level.
At the end of the treatment, cells were lysed to proceed with the cAMP quantification. All measures were performed in triplicates in one experiment. The quantitative determination of cAMP was performed through a competitive fluorescence immunoassay. Data were expressed as % of Delta Fluorescence (Delta F) that was calculated as follows: Delta F %=(Sample Fluorescence−Negative control Fluorescence)/Negative control Fluorescence.

T1 sequence (P41586 21-468): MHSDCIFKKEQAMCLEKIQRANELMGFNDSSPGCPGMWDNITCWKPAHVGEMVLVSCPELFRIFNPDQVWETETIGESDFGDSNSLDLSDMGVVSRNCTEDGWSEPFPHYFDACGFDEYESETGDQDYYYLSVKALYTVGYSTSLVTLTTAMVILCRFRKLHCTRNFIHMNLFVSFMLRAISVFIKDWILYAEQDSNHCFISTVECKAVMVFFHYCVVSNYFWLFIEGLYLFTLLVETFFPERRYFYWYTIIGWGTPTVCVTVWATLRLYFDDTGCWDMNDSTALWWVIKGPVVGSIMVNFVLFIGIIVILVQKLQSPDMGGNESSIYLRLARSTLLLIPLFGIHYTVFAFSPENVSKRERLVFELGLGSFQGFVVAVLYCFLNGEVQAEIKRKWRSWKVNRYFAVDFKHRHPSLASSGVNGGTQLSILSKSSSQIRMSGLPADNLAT
Sequence of human CB1 receptor (P21554 whole entry): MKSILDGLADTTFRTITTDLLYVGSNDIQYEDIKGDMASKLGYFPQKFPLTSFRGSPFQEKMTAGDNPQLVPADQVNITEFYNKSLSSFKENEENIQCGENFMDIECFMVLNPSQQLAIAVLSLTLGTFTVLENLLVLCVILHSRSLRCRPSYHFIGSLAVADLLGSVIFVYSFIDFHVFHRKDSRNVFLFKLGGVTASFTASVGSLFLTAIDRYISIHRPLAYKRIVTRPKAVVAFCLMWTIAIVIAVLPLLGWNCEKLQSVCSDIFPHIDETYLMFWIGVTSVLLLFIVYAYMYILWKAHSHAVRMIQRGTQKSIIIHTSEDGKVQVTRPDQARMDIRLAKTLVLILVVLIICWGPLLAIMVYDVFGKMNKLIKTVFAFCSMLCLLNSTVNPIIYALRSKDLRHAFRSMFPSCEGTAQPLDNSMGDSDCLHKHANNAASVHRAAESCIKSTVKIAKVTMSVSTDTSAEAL
T2 sequence (P10275 whole entry): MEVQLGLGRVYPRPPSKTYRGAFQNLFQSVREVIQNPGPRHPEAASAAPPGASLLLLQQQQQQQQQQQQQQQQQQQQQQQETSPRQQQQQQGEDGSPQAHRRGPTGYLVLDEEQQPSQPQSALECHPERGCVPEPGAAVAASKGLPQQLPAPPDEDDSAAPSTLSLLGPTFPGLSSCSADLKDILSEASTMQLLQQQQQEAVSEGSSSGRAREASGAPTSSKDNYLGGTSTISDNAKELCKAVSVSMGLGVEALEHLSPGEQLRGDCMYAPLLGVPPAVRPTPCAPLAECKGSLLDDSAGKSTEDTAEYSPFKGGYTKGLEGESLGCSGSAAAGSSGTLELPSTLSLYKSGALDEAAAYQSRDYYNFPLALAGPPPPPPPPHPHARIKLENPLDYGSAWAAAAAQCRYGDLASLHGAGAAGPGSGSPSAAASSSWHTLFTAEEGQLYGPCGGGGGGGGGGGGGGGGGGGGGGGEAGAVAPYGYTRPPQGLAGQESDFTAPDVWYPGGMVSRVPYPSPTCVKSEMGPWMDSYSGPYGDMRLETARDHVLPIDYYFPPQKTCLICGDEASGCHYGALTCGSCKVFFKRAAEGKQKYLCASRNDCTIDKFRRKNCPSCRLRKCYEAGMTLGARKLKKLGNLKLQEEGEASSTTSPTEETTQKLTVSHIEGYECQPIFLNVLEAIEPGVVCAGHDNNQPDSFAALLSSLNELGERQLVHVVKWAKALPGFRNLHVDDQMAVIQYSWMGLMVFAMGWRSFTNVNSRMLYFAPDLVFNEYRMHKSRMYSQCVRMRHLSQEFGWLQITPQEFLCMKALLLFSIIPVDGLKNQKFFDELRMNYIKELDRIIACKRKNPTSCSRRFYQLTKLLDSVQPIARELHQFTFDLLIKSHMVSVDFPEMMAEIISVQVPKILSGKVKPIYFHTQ

SMILES	inhibition at 10 µM [1] [%]	Histopathological changes ([2]; 20 mg/kg per os, 7 days)	Total protein level ([2]; 20 mg/kg per os, 7 days)	Triglyceride level ([2]; 20 mg/kg per os, 7 days)	Triglyceride level ([2]; 20 mg/kg per os, 7 days, females)	Red blood cell counts ([2]; 20 mg/kg per os, 7 days, males)	White blood cell counts ([2]; 20 mg/kg per os, 7 days, males and females)	Signs of toxicity ([2]; 20 mg/kg/day per os, 7 consecutive days)	MTD at 7 days ([2]; both sexes, Sprague-Dawley, rat, in vivo, oral, 20 mg/kg, repeated treatment at a single dose, 7 days per os, read-out: Maximum tolerated dose (MTD)) [mg/kg/day]	Modification of the binding of the 85 receptors ([3]; 10 μM)	pIC50 ([3]; CEREP High-throughput binding profile (85 receptors), read-out: ID50 (the source's name))	inhibition at 10 µM [4] [%]	Exploration of the familiar object (short-term sequential object recognition) [5]	Effects on spontaneous behaviors per se [6]	Sucrose intake ([7]; 0.05, 5, 15, 30 mg/kg per os once a day, 28 days)	Effect: increase in depression-related behaviors (repeated administration) ([7]; male mice, highest dose tested 30 mg/kg)	Effect on inhibition of cAMP induced by THC [8]
CC(=O)[C@H]1CC[C@H]2[C@@H]3CC=C4C[C@@H](O)CC[C@]4(C)[C@H]3CC[C@]12C [pregnenolone, reference compound]	-25	–	–	–	–	–	–	–	–	–	–	–	–	–	–	–	–
CC(=O)[C@@]1(C)CC[C@H]2[C@@H]3CC=C4C[C@@H](OCc5ccccc5)CC[C@]4(C)[C@H]3CC[C@@]21C [3Bn17MeP, 3β-benzyloxy, 17α-methyl-pregn-5-en-20-one]	–	not associated with any histopathological changes	tendency to lower total protein level	higher triglyceride level	tendency to a lower triglyceride level	slight tendency to a lower red blood cell counts	tendency to a lower white blood cell counts	did not induce any sign of toxicity	> 20	does not modify the binding of any of the 85 receptors	< 5.00	16	explored significantly less the familiar object after 5 and 35 minutes	no detectable effects	had no effect on sucrose intake	No	does not modify
